Reference: paper PMC11149917, “Translational and Therapeutic Evaluation of RAS-GTP Inhibition by RMC-6236 in RAS-Driven Cancers” (Cancer Discovery, 2024)
“And” between values parts separate entries of the source, which are not always exact repeats. Equal values may be shown once.

What was measured:
[1] = tested on: DUSP6 mRNA in NCI-H441 xenograft tumors; test: In vivo PD by DUSP6 qPCR and PK/PD relationship; design: species or system mouse; conditions: for % inhibition of DUSP6 vs control: NCI-H441 xenograft tumor
Protocol: Tumor-bearing animals were randomized and assigned into groups (n = 1–10/group). The vehicle at 10 mL/kg or RMC-6236 at indicated doses was administered via oral gavage daily, and animals were treated for 28 days, or up to 90 days if PFS was being assessed. […] For single-dose PKPD study, mice were randomized and assigned into groups (n = 3/dose/time point). A single dose of RMC-6236 was administered orally at either 3, 10, or 25 mg/kg. Blood and tissues, including the tumor, brain, colon, ear skin, and muscle, were harvested at indicated time points. Whole blood was collected in K2EDTA Microtainer tubes, incubated for 5 minutes, and snap-frozen in liquid nitrogen. The tissue was either fixed in 10% formalin or snap-frozen in liquid nitrogen for further analysis.
RNA was extracted from at least 20 mg of tissue using an RNeasy Mini Kit (Qiagen, 74104) and a High-Throughput Tissue grinder following the manufacturer's protocol. Reverse transcription was carried out using High-Capacity cDNA Reverse Transcription Kit (ABI, 4368814) according to the manufacturer's protocol. The cDNA product was used for qPCR analysis using TaqMan Gene-Expression Master Mix (ABI, 4369016). TaqMan primer probes specific to DUSP6 (human—Hs00737962_m1, murine—Mm00518185_m1, FAM-MGB) and 18S (RNA18S1; human—Hs99999901_s1, murine—Mm03928990_g1, FAM-MGB, used as an internal control gene) were used to detect the levels from each sample in duplicates using a 10 µL final reaction volume in a 384-well clear optical reaction plate. For qPCR, Ct values of DUSP6 and 18S were obtained for analysis. DUSP6 Ct value was normalized to 18S, and then the mean relative mRNA expression levels of each group were normalized to the vehicle control group. Values were plotted as relative change in mRNA expression compared with vehicle. Means ± SEM were shown.
Concentrations of RMC-6236 in tumor or normal tissues and percentage of DUSP6 inhibition as compared with the vehicle control from individual animals were collected and analyzed post a single dose of RMC-6236 ranging from 0.3 to 100 mg/kg (Supplementary Table S6). A 3-parameter sigmoidal exposure–response model was fitted to the data in GraphPad Prism to derive EC50 and EC90 values.

[2] = tested on: eCT26 (Kras^G12C/G12C) tumors in BALB/c mice; test: Syngeneic model study; format: in vivo, mouse; conditions: monotherapy 25 mg/kg, 14 days
From the text: LU99 cells (JCRB0080) were stably modified with lentivirus-based pHBLV-CMV-MCS-EF1-fLuc-T2A-puro vector to generate luciferase-expressing LU99-Luc cells. NCI-H1373 cells (ATCC CRL-5866) were stably modified with lentivirus-based pHBLV-CMV-MCS-EF1-fluc-T2A-PURO vector to generate luciferase-expressing NCI-H1373-Luc cells. The eCT26 Kras^G12C^/G12CAbcb1^−^/^− (clone I20) and eCT26 Kras^G12D^/G12DAbcb1^−^/^− (clone I12) cell lines were engineered from the murine CT26 homozygous Kras^G12D tumor cell line (ATCC CRL-2638). All Kras^G12D alleles were replaced with Kras^G12C using CRISPR technology at Synthego. Additionally, the P-glycoprotein drug transporter, Abcb1a and Abcb1b, were knocked out using CRISPR guide sequences […] and […], respectively. The homozygous G12C mutation and the Abcb1 knockout were confirmed by Sanger sequencing in the clone selected and were used for in vivo experiments.
Female BALB/c immunocompetent mice and female NOD-SCID/IL2Rg(null; NSG) immune-deficient mice (6–8 weeks old) were purchased from the Jackson Laboratory and were acclimated at Revolution Medicines for 7 days before cell implantation. […] Treatments were initiated at the time of randomization when the average tumor volume reached 100 to 120 mm^3. The animals were assigned into groups using Studylog randomization software, performing stratified randomization based on their tumor volumes. […]

CCn1c(-c2cc(N3CCN(C)CC3)cnc2[C@H](C)OC)c2c3cc(ccc31)-c1csc(n1)C[C@H](NC(=O)[C@H]1C[C@@H]1C)C(=O)N1CCC[C@H](N1)C(=O)OCC(C)(C)C2 [RMC-6236]
DUSP6 mRNA Expression (%) ([1]; Model Development Dataset, 25mg/kg_study8, 1 h): 30.3376% | DUSP6 mRNA Expression (%) ([1]; Model Development Dataset, 25mg/kg_study8, 2 h): 11.6899% | DUSP6 mRNA Expression (%) ([1]; Model Development Dataset, 25mg/kg_study8, 8 h): 1.524% | DUSP6 mRNA Expression (%) ([1]; Model Development Dataset, 25mg/kg_study8, 24 h): 8.817% | DUSP6 mRNA Expression (%) ([1]; Model Development Dataset, 25mg/kg_study8r (doses every 24 h, 0-[…]), 240 h): 3.766% | DUSP6 mRNA Expression (%) ([1]; Model Development Dataset, 40mg/kg_study8, 1 h): 65.2423% | DUSP6 mRNA Expression (%) ([1]; Model Development Dataset, 40mg/kg_study8, 2 h): 13.6285% | DUSP6 mRNA Expression (%) ([1]; Model Development Dataset, 40mg/kg_study8, 8 h): 4.661% | DUSP6 mRNA Expression (%) ([1]; Model Development Dataset, 40mg/kg_study8, 24 h): 3.474% | DUSP6 mRNA Expression (%) ([1]; Model Development Dataset, 40mg/kg_study8r (doses every 24 h, 0-[…]), 240 h): 0.8569% | DUSP6 mRNA Expression (%) ([1]; Model Validation Dataset, 10mg/kg_study6, 1 h): 45.187% | DUSP6 mRNA Expression (%) ([1]; Model Validation Dataset, 10mg/kg_study6, 8 h): 5.053% | DUSP6 mRNA Expression (%) ([1]; Model Validation Dataset, 10mg/kg_study6, 24 h): 13.225% | DUSP6 mRNA Expression (%) ([1]; Model Validation Dataset, 10mg/kg_study6, 48 h): 62.867% | DUSP6 mRNA Expression (%) ([1]; Model Validation Dataset, 25mg/kg_study6, 1 h): 48.7936% | DUSP6 mRNA Expression (%) ([1]; Model Validation Dataset, 25mg/kg_study6, 8 h): 5.7726% | DUSP6 mRNA Expression (%) ([1]; Model Validation Dataset, 25mg/kg_study6, 24 h): 9.122% | DUSP6 mRNA Expression (%) ([1]; Model Validation Dataset, 25mg/kg_study6, 48 h): 14.7114% | DUSP6 mRNA Expression (%) ([1]; Model Validation Dataset, 25mg/kg_study6, 72 h): 12.5199% | DUSP6 mRNA Expression (%) ([1]; Model Validation Dataset, 50mg/kg_study6, 1 h): 16.7798% | DUSP6 mRNA Expression (%) ([1]; Model Validation Dataset, 50mg/kg_study6, 8 h): 5.52% | DUSP6 mRNA Expression (%) ([1]; Model Validation Dataset, 50mg/kg_study6, 24 h): 5.873% | DUSP6 mRNA Expression (%) ([1]; Model Validation Dataset, 50mg/kg_study6, 48 h): 10.9912% | DUSP6 mRNA Expression (%) ([1]; Model Validation Dataset, 50mg/kg_study6, 72 h): 10.0613% | EC50 ([1]; Mus musculus, NCI-H441, read-out: EC50, inhibition of DUSP6 expression vs RMC-6236 concentration (PK/PD relationship)): 117 nM | EC90 ([1]; Mus musculus, NCI-H441, read-out: EC90, inhibition of DUSP6 expression vs RMC-6236 concentration (PK/PD relationship)): 1120 nM | % inhibition of DUSP6 vs control ([1]; study NCI-H441#6, 10 mg/kg, 8h): 94.3996% and 97.36% and 93.0812% | % inhibition of DUSP6 vs control ([1]; study NCI-H441#6, 10 mg/kg, 24h): 92.8123% and 75.0577% and 92.455% | % inhibition of DUSP6 vs control ([1]; study NCI-H441#6, 25 mg/kg, 8h): 92.2964% and 95.8141% and 94.5716% | % inhibition of DUSP6 vs control ([1]; study NCI-H441#6, 25 mg/kg, 24h): 90.5813% and 91.1816% and 90.8706% | % inhibition of DUSP6 vs control ([1]; study NCI-H441#6, 25 mg/kg, 48h): 88.2424% and 92.0524% and 75.571% | % inhibition of DUSP6 vs control ([1]; study NCI-H441#6, 50 mg/kg, 8h): 94.9176% and 94.1618% and 94.3607% | % inhibition of DUSP6 vs control ([1]; study NCI-H441#6, 50 mg/kg, 24h): 95.6815% and 94.6463% and 92.0524% | % inhibition of DUSP6 vs control ([1]; study NCI-H441#6, 50 mg/kg, 48h): 89.9053% and 88.838% and 88.2831% | % inhibition of DUSP6 vs control ([1]; study NCI-H441#6, 100 mg/kg, 8h): 96.2144% and 97.8257% and 94.7565% | % inhibition of DUSP6 vs control ([1]; study NCI-H441#6, 100 mg/kg, 24h): 96.5645% and 97.2858% and 99.0371% | % inhibition of DUSP6 vs control ([1]; study NCI-H441#6, 100 mg/kg, 48h): 97.3783% and 95.7557% and 95.9427% | % inhibition of DUSP6 vs control ([1]; study NCI-H441#8, 25 mg/kg, 2h): 93.3108% and 86.9874% and 84.6322% | % inhibition of DUSP6 vs control ([1]; study NCI-H441#8, 25 mg/kg, 8h): 99.2306% and 96.8685% and 99.3302% | % inhibition of DUSP6 vs control ([1]; study NCI-H441#8, 25 mg/kg, 24h): 93.9294% and 85.711% and 93.9083% | % inhibition of DUSP6 vs control ([1]; study NCI-H441#8, 40 mg/kg, 2h): 77.4222% and 82.1626% and 99.5296% | % inhibition of DUSP6 vs control ([1]; study NCI-H441#8, 40 mg/kg, 8h): 94.9481% and 94.7152% and 96.3527% | % inhibition of DUSP6 vs control ([1]; study NCI-H441#8, 40 mg/kg, 24h): 94.2767% and 98.3791% and 96.9223% | % inhibition of DUSP6 vs control ([1]; study NCI-H441#10, 0.3 mg/kg, 8h): 46.2112% and 70.874% and 74.5563% | % inhibition of DUSP6 vs control ([1]; study NCI-H441#10, 0.3 mg/kg, 48h): 38.4266% and 52.8484% and 73.0122% | % inhibition of DUSP6 vs control ([1]; study NCI-H441#10, 1 mg/kg, 48h): 52.6847% and 48.936% and 65.7214% | % inhibition of DUSP6 vs control ([1]; study NCI-H441#10, 10 mg/kg, 8h): 85.6375% and 96.6614% and 94.5007% | % inhibition of DUSP6 vs control ([1]; study NCI-H441#10, 10 mg/kg, 24h): 85.7861% and 76.2602% and 81.9462% | % inhibition of DUSP6 vs control ([1]; study NCI-H441#10, 10 mg/kg, 48h): 44.699% and 49.9869% and 60.6243% | % inhibition of DUSP6 vs control ([1]; study NCI-H441#13, 0.3 mg/kg, 8h): 54.8539% and 55.936% and 78.3465% | % inhibition of DUSP6 vs control ([1]; study NCI-H441#13, 1 mg/kg, 2h): 47.4169% and 56.5427% and 69.4833% | animals maintaining mCRs following treatment withdrawal [2]: 60%
